Measured values: ChEMBL document CHEMBL1156789, “Design and synthesis of 5,5'-disubstituted aminohydantoins as potent and selective human beta-secretase (BACE1) inhibitors” (J Med Chem, 2010)

Experiments:
Beta-secretase 1 [1] = molecular target: T1, Beta-secretase 1 (Homo sapiens, UniProt P56817); test: Inhibition of BACE1 expressed in CHOK1 cells coexpressing human recombinant wild type APP assessed as blockade of amyloid beta production by ELISA; assay type: cell-based, CHO-K1
Beta-secretase 2 = molecular target: T2, Beta-secretase 2 (Homo sapiens, UniProt Q9Y5Z0); test: Inhibition of human BACE2 by FRET based peptide cleavage assay
T2 sequence (Q9Y5Z0 whole entry): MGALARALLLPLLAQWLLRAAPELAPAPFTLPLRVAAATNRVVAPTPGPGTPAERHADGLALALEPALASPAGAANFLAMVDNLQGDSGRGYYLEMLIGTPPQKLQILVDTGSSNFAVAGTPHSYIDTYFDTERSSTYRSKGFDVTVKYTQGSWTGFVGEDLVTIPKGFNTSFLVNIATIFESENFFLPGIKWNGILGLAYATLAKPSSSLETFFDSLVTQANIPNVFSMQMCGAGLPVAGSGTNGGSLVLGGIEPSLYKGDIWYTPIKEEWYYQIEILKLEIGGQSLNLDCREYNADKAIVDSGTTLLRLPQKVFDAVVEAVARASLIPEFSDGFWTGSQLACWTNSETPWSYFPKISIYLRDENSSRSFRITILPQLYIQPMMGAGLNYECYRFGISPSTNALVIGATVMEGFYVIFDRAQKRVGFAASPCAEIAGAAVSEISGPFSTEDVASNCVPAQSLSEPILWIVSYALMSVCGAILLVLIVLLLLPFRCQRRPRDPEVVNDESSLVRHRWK

Cathepsin D [2] = molecular target: T3, Cathepsin D (Homo sapiens, UniProt P07339); test: Inhibition of human cathepsin D by FRET based peptide cleavage assay
Beta-secretase 1 [3] = molecular target: T1, Beta-secretase 1; test: Inhibition of human BACE1 by FRET based peptide cleavage assay
[4] = Inhibition of pepsin by FRET based peptide cleavage assay
Renin = molecular target: T4, Renin (Homo sapiens, UniProt P00797); test: Inhibition of human recombinant renin by FRET based peptide cleavage assay
T4 sequence (P00797 whole entry): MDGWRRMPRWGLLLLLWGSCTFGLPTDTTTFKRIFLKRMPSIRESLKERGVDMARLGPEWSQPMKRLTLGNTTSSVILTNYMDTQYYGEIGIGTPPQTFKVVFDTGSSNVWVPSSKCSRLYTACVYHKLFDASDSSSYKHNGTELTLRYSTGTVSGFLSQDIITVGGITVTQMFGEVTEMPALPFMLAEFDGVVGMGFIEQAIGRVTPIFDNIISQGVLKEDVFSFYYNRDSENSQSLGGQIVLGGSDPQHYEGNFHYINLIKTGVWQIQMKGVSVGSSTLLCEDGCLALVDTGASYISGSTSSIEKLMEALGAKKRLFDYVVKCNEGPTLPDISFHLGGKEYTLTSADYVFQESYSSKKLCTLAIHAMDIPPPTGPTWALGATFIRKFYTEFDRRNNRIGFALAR

Cathepsin D [5] = molecular target: T3, Cathepsin D; test: Inhibition of human cathepsin D at 100 uM by FRET based peptide cleavage assay

T3 sequence (P07339 65-162 limits assumed): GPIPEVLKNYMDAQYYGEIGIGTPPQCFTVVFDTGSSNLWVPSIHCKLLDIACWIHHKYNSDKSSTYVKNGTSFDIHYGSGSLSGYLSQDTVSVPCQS
T3 sequence (P07339 169-412 limits assumed): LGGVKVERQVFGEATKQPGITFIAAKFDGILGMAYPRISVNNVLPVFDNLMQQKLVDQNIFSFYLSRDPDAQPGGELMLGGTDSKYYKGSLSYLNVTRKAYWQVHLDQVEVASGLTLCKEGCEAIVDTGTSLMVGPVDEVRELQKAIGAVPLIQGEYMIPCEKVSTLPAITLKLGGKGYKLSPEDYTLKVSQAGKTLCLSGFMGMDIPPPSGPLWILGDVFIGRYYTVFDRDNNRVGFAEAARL
T1 sequence (P56817 whole entry): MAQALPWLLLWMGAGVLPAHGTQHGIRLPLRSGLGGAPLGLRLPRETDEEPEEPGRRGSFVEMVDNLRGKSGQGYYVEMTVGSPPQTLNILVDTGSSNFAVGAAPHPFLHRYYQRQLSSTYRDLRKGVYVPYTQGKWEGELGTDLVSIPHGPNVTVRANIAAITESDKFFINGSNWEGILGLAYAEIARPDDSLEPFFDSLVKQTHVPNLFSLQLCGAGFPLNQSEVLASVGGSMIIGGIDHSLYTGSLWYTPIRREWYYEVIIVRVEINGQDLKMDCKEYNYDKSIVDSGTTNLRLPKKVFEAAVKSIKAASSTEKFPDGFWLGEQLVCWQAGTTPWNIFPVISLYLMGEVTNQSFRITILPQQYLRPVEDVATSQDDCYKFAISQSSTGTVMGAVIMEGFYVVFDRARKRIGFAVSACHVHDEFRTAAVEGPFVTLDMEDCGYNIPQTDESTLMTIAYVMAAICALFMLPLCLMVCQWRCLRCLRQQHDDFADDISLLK

Row | SMILES | EC50 (Beta-secretase 1 [1]) | IC50 (Beta-secretase 2) | IC50 (Cathepsin D [2]) | IC50 (Beta-secretase 1 [3]) | IC50 [4] | IC50 (Renin) | inhibition (Cathepsin D [5])
1 | COc1ccc(C2(c3ccc(C#N)c(-c4cccnc4)c3)N=C(N)N(C)C2=O)cc1C (configuration not stated) | 1.75 µM | 2.32 µM | 2.19 µM | 0.63 µM |  |  | 
2 | COc1ccc(C2(C34CC5CC(CC(C5)C3)C4)N=C(N)N(C)C2=O)cc1C (configuration not stated) |  | 6.29 µM | 11.1 µM |  | 15 µM | 59.5 µM | 
3 | NC1=NC(c2ccccc2)(c2ccccc2)C(=O)N1 | 23.5 µM | 87.2 µM |  |  |  |  | 13%
4 | COc1cccc(C2(c3ccccc3)N=C(N)N(C)C2=O)c1 (configuration not stated) | 5.9 µM | 1.19 µM |  | 3.47 µM |  |  | 46%
5 | CN1C(=O)C(c2ccccc2)(c2ccc(Cl)cc2)N=C1N (configuration not stated) | 2.13 µM | 1.84 µM | 38.2 µM | 2.25 µM |  |  | 
6 | COc1ccc(C2(c3cccc(-c4cccnc4)c3)N=C(N)N(C)C2=O)cc1OC1CCCC1 (configuration not stated) |  | 0.3 µM | 8.3 µM |  |  |  | 
7 | COc1ccc(C2(c3cccc(-c4cccnc4)c3)N=C(N)N(C)C2=O)cc1F (configuration not stated) | 0.42 µM | 0.52 µM | 5.2 µM | 0.05 µM |  |  | 
8 | COc1ccc([C@@]2(C34CC5CC(CC(C5)C3)C4)N=C(N)N(C)C2=O)cc1C |  | 73.6 µM | 13.1 µM |  |  |  | 
9 | COc1ccc(-c2cccc(C3(c4ccc(OC(F)(F)F)cc4)N=C(N)N(C)C3=O)c2)cn1 (configuration not stated) |  | 2.51 µM | 4.43 µM |  |  |  | 
10 | COc1ccc(C2(c3cccc(-c4cccnc4)c3)N=C(N)N(C)C2=O)cc1OC (configuration not stated) |  |  | 23.1 µM |  |  |  | 
11 | COc1ncccc1-c1cccc(C2(c3ccc(OC(F)(F)F)cc3)N=C(N)N(C)C2=O)c1 (configuration not stated) | 2.57 µM | 5.99 µM | 2.05 µM | 0.52 µM |  |  | 
12 | CCOc1ccc(C2(C34CC5CC(CC(C5)C3)C4)N=C(N)N(C)C2=O)cc1 (configuration not stated) |  | 2.53 µM | 11.5 µM |  |  |  | 
13 | COc1ccc(C2(c3cccc(-c4cccnc4)c3)N=C(N)N(C)C2=O)cc1OC(C)C (configuration not stated) | 0.87 µM | 1.84 µM | 12.2 µM | 0.06 µM |  |  | 
14 | CN1C(=O)C(c2ccccc2)(C23CC4CC(CC(C4)C2)C3)N=C1N (configuration not stated) |  | 0.83 µM | 27.3 µM |  |  |  | 
15 | CN1C(=O)[C@](c2ccc(OC(F)(F)F)cc2)(c2ccc(F)c(-c3cncnc3)c2)N=C1N |  | 9.97 µM | 11.6 µM |  |  |  | 
16 | COc1ccc(C2(C34CC5CC(CC(C5)C3)C4)N=C(N)N(C)C2=O)cc1 (configuration not stated) |  | 0.68 µM | 15.3 µM |  | 14.4 µM | 53.3 µM | 
17 | CN1C(=O)C(c2ccc(OC(F)(F)F)cc2)(C23CC4CC(CC(C4)C2)C3)N=C1N (configuration not stated) |  | 3.87 µM | 6.22 µM |  |  |  | 
18 | CN1C(=O)C(c2ccc(OC(F)(F)F)cc2)(c2cccc(-c3cncnc3)c2F)N=C1N (configuration not stated) | 2.83 µM | 5.04 µM | 26.2 µM | 1.36 µM |  |  | 
19 | COc1ccc(C2(c3cccc(-c4cccnc4)c3)N=C(N)N(C)C2=O)cc1C (configuration not stated) |  |  |  |  | 19.6 µM | 93.4 µM | 
20 | COc1ccc(C2(c3cccc(-c4cccnc4)c3)N=C(N)N(C)C2=O)cc1C1CCCC1 (configuration not stated) |  | 0.96 µM | 1.87 µM |  |  |  | 
21 | COc1ccc([C@]2(c3ccc(F)c(-c4cccnc4F)c3)N=C(N)N(C)C2=O)cc1C |  | 1.64 µM | 2.71 µM |  |  |  | 
22 | COc1ccc([C@]2(C34CC5CC(CC(C5)C3)C4)N=C(N)N(C)C2=O)cc1 |  | 0.23 µM | 13.4 µM |  |  |  | 

Row | SMILES | EC50 (Beta-secretase 1 [1]) | IC50 (Beta-secretase 2) | IC50 (Cathepsin D [2]) | IC50 (Beta-secretase 1 [3]) | IC50 [4] | IC50 (Renin) | inhibition (Cathepsin D [5])
23 | CN1C(=O)C(c2ccc(OC(F)(F)F)cc2)(c2ccc(F)c(-c3cncnc3)c2)N=C1N (configuration not stated) |  | 9.69 µM | 4.18 µM |  |  |  | 
24 | CCN1C(=O)C(c2ccccc2)(c2ccccc2)N=C1N | 8.13 µM | 5.16 µM |  |  |  |  | 33%
25 | CCOc1cc(C2(c3cccc(-c4cccnc4)c3)N=C(N)N(C)C2=O)ccc1OC (configuration not stated) | 0.52 µM | 0.6 µM | 10.3 µM | 0.05 µM |  |  | 
26 | CCCOc1cc(C2(c3cccc(-c4cccnc4)c3)N=C(N)N(C)C2=O)ccc1OC (configuration not stated) | 0.68 µM | 0.2 µM | 10.1 µM | 0.05 µM |  |  | 
27 | COc1ccc(C2(c3cccc(-c4cncnc4)c3)N=C(N)N(C)C2=O)cc1C (configuration not stated) |  | 1.59 µM | 14.3 µM |  | 33.3 µM | 42.3 µM | 
28 | CN1C(=O)C(c2cccc(-c3cccnc3)c2)(c2ccc3c(c2)OCCO3)N=C1N (configuration not stated) |  | 0.5 µM | 10.9 µM |  |  |  | 
29 | CN1C(=O)C(c2cccc(-c3cccnc3)c2)(c2ccc3c(c2)OCO3)N=C1N (configuration not stated) |  | 0.54 µM | 21.4 µM |  |  |  | 
30 | CN1C(=O)[C@@](c2ccc(OC(F)(F)F)cc2)(c2ccc(F)c(-c3cncnc3)c2)N=C1N |  | 7.54 µM | 2.33 µM |  |  |  | 
31 | CN1C(=O)C(c2ccc(OC(F)(F)F)cc2)(c2cc(F)cc(-c3cncnc3)c2)N=C1N (configuration not stated) |  | 1.26 µM | 8.55 µM | 0.32 µM | 35.1 µM | 13.8 µM | 
32 | COc1ccc(C2(c3ccc(C)c(-c4cccnc4)c3)N=C(N)N(C)C2=O)cc1C (configuration not stated) |  | 0.96 µM | 2.47 µM |  |  |  | 
33 | COc1ccc(C2(c3cccc(-c4cccnc4)c3)N=C(N)N(C)C2=O)cc1C#N (configuration not stated) | 4.5 µM | 0.55 µM | 7.3 µM | 0.15 µM |  |  | 
34 | COc1ccc(C2(c3cccc(-c4cccnc4F)c3)N=C(N)N(C)C2=O)cc1C (configuration not stated) | 0.11 µM |  |  |  |  |  | 
35 | COc1ccc(C2(c3ccccc3)N=C(N)N(C)C2=O)cc1 (configuration not stated) | 3.35 µM | 1.72 µM |  | 3.1 µM |  |  | 3%
36 | COc1ccc(C2(c3ccc(F)c(-c4cncnc4)c3)N=C(N)N(C)C2=O)cc1C (configuration not stated) |  | 2.8 µM | 6.7 µM |  | 35.3 µM | 57.6 µM | 
37 | CN1C(=O)C(c2cccc(-c3cccnc3)c2)(c2ccc3c(c2)CCO3)N=C1N (configuration not stated) |  | 1.13 µM | 23.9 µM |  |  |  | 
38 | CN1C(=O)C(c2ccccc2)(c2cccc(Cl)c2)N=C1N (configuration not stated) | 6.97 µM | 0.42 µM | 69.2 µM | 2.5 µM |  |  | 
39 | COc1ccc([C@]2(C34CC5CC(CC(C5)C3)C4)N=C(N)N(C)C2=O)cc1C |  | 4.02 µM | 9.21 µM |  |  |  | 
40 | COc1ccc(C2(c3ccc(F)c(-c4cccnc4F)c3)N=C(N)N(C)C2=O)cc1C (configuration not stated) |  | 1.84 µM | 2.41 µM |  | 66.3 µM | 23.2 µM | 
41 | CCCCOc1cc(C2(c3cccc(-c4cccnc4)c3)N=C(N)N(C)C2=O)ccc1OC (configuration not stated) | 0.67 µM | 0.17 µM | 8.18 µM | 0.05 µM |  |  | 
42 | COc1ccc(C2(c3cccc(-c4cccnc4)c3)N=C(N)N(C)C2=O)cc1Cl (configuration not stated) |  | 0.56 µM | 6.28 µM |  |  |  | 
43 | COc1ccc(C2(c3cccc(-c4cccnc4)c3)N=C(N)N(C)C2=O)cc1C(F)(F)F (configuration not stated) |  | 1 µM | 3.51 µM |  |  |  | 
44 | CCCCOc1ccc(C2(C34CC5CC(CC(C5)C3)C4)N=C(N)N(C)C2=O)cc1 (configuration not stated) |  | 5.55 µM | 8.4 µM |  |  |  | 
